From patent US10144742B2 (Millennium Pharmaceuticals, Inc., priority 2014, dated 2018)
pIC50: −log10 of the molar value.

Tests used:
hNAMPT protein = hNAMPT protein (Homo sapiens (Human), UniProt P43490); assay: NAMPT enzyme assay (TR-FRET/HTRF, BodiPY ligand, anti 6His-Tb); type: binding; details: for pIC50: NAMPT IC50 range class, read-out: IC50; for inhibition at 1 µM: compound concentration 1 μM, read-out: Percent Inhibition
Outline: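 Compound or DMSO was incubated for 1 h at room temperature, protected from light, with BodiPY ligand and hNAMPT labelled by terbium anti-6His antibody. The 520 nm to 486 nm emission ratio after 320 nm excitation gave inhibition versus vehicle, from which concentration-response curves yielded IC50.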

PC3 cells = assay: PC3 growth inhibition (Cell-titer glo, 72 hours); type: cell-based; details: Homo sapiens, PC-3; compound concentration 1.667 μM; PC3 cells, 72 hours, Cell-titer glo; read-out: Percent Inhibition (PC3 growth inhibition)
Outline: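 Compounds in AIM serum-free medium were applied for 72 h at 37 °C, 5% CO2 to PC3 cells plated overnight from RPMI1640 culture. Luminescence after 10 min CellTiter-Glo, normalised to DMSO, gave % viability at 1 μM or 1.667 μM, or GI50/LD50.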

Sequence of hNAMPT protein (P43490 whole entry): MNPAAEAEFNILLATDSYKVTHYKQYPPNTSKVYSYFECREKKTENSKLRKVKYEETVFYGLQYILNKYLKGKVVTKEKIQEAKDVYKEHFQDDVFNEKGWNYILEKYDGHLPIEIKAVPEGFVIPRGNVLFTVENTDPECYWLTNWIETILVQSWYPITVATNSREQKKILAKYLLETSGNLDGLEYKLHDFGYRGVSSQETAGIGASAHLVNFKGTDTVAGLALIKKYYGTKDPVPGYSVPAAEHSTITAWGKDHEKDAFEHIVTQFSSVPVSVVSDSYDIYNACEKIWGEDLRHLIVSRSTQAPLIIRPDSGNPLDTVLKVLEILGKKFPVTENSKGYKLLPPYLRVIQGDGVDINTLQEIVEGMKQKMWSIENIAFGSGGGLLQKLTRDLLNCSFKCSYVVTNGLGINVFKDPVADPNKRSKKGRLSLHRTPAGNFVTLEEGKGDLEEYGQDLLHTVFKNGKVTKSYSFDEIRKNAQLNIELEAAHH

## O=C(NCCCc1ncc[nH]1)c1ccc2nc(-c3ccc(F)cc3)c(-c3ccc(Cl)cc3)nc2c1 [Compound I-361, 3-(4-chlorophenyl)-2-(4-fluorophenyl)-N-[3-(1H-imidazol-2-yl)propyl]quinoxaline-6-carboxamide]
hNAMPT protein
  pIC50: > 7.00
  inhibition at 1 µM: 98%
PC3 cells
  inhibition at 1.667 µM: 1%

## Nc1ccc(CCCNC(=O)c2ccc3nc(N4CCOCC4)c(-c4ccc(F)cc4)nc3c2)cn1 [Compound I-362, N-[3-(6-aminopyridin-3-yl)propyl]-3-(4-fluorophenyl)-2-(morpholin-4-yl)quinoxaline-6-carboxamide]
hNAMPT protein
  pIC50: 6.30 to 7.00
  inhibition at 1 µM: 74%
PC3 cells
  inhibition at 1.667 µM: 2%

## N#Cc1ccc(-c2nc3cc(C(=O)NCCCc4ncc[nH]4)ccc3nc2-c2ccc(F)cc2)s1 [Compound I-363, 3-(5-cyano-2-thienyl)-2-(4-fluorophenyl)-N-[3-(1H-imidazol-2-yl)propyl]quinoxaline-6-carboxamide]
hNAMPT protein
  pIC50: 6.30 to 7.00
  inhibition at 1 µM: 78%
PC3 cells
  inhibition at 1.667 µM: 3%

## O=C(NCCCc1ncc[nH]1)c1ccc2nc(OCc3ccc(Cl)cc3)c(-c3ccc(F)cc3)nc2c1 [Compound I-364, 2-[(4-chlorobenzyl)oxy]-3-(4-fluorophenyl)-N-[3-(1H-imidazol-2-yl)propyl]quinoxaline-6-carboxamide]
hNAMPT protein
  pIC50: 6.30 to 7.00
  inhibition at 1 µM: 73%
PC3 cells
  inhibition at 1.667 µM: 4%

## Cc1ccc(Cl)c(-c2nc3cc(C(=O)NCCCc4ncc[nH]4)ccc3nc2-c2ccc(F)cc2)c1 [Compound I-365, 3-(2-chloro-5-methylphenyl)-2-(4-fluorophenyl)-N-[3-(1H-imidazol-2-yl)propyl]quinoxaline-6-carboxamide]
hNAMPT protein
  pIC50: > 7.00
  inhibition at 1 µM: 97%
PC3 cells
  inhibition at 1.667 µM: 1%

## O=C(NCCCc1ncc[nH]1)c1ccc2nc(C3CCOCC3)c(-c3ccc(F)cc3)nc2c1 [Compound I-366, 3-(4-fluorophenyl)-N-[3-(1H-imidazol-2-yl)propyl]-2-(tetrahydro-2H-pyran-4-yl)quinoxaline-6-carboxamide]
hNAMPT protein
  pIC50: 6.00 to 6.30
  inhibition at 1 µM: 53%
PC3 cells
  inhibition at 1.667 µM: 1%

## CC(C)Oc1nc2ccc(C(=O)NCc3ccc4nccn4c3)cc2nc1-c1ccc(F)c(F)c1 [Compound I-367, 3-(3,4-Difluorophenyl)-N-(imidazo[1,2-a]pyridin-6-ylmethyl)-2-isopropoxyquinoxaline-6-carboxamide]
hNAMPT protein
  pIC50: 6.00 to 6.30
  inhibition at 1 µM: 50%
PC3 cells
  inhibition at 1.667 µM: 0%

## O=C(NCCCc1ncc[nH]1)c1ccc2nc(-c3ccc(F)cc3)c(-c3ccc(F)s3)nc2c1 [Compound I-368, 2-(4-fluorophenyl)-3-(5-fluoro-2-thienyl)-N-[3-(1H-imidazol-2-yl)propyl]quinoxaline-6-carboxamide]
hNAMPT protein
  pIC50: > 7.00
  inhibition at 1 µM: > 99%
PC3 cells
  inhibition at 1.667 µM: 1%

## O=C(NCCCc1ncc[nH]1)c1ccc2nc(-c3ccc(F)cc3)c(-c3ccc(Cl)c(C(F)(F)F)c3)nc2c1 [Compound I-369, 3-[4-chloro-3-(trifluoromethyl)phenyl]-2-(4-fluorophenyl)-N-[3-(1H-imidazol-2-yl)propyl]quinoxaline-6-carboxamide]
hNAMPT protein
  pIC50: > 7.00
  inhibition at 1 µM: 93%
PC3 cells
  inhibition at 1.667 µM: 2%

## CC(=O)c1ccc(-c2nc3cc(C(=O)NCCCc4ncc[nH]4)ccc3nc2-c2ccc(F)cc2)s1 [Compound I-370, 3-(5-acetyl-2-thienyl)-2-(4-fluorophenyl)-N-[3-(1H-imidazol-2-yl)propyl]quinoxaline-6-carboxamide]
hNAMPT protein
  pIC50: 6.00 to 6.30
  inhibition at 1 µM: 64%
PC3 cells
  inhibition at 1.667 µM: 3%

## CCCOc1nc2ccc(C(=O)NCCCc3ncc[nH]3)cc2nc1-c1ccc(F)cc1 [Compound I-371, 3-(4-fluorophenyl)-N-[3-(1H-imidazol-2-yl)propyl]-2-propoxyquinoxaline-6-carboxamide]
hNAMPT protein
  pIC50: > 7.00
  inhibition at 1 µM: 97%
PC3 cells
  inhibition at 1.667 µM: 3%
